Like-named read-outs stand apart in the source and are kept apart here.
What was measured:
[1] = tested on: bloodstream form of T. brucei strain Lister 427; experiment: T. b. brucei 427 growth inhibition assay (LILiT, Alamar Blue); type: cell-based; conditions: Trypanosoma brucei
Description: The ‘in vitro’ parasite killing assay used the BSF of the non-human pathogenic subspecies T. b. brucei, strain Lister 427, cultured in HMI-9 medium containing 10% foetal bovine serum. A second cell line, T. b. brucei GVR35-Luc2 which constitutively expresses firefly luciferase was grown in Modified HMI-9 plus 20% foetal calf serum supplemented with 20% Serum Plus (Sigma) and 0.15 μg mL^−1 puromycin. Both strains of trypanosomes were cultured in T-25 vented cap flasks at 37 °C and 5% CO2.
The ‘in vitro’ parasite killing assay used the bloodstream-form of the non-human pathogenic subspecies T. b. brucei, strain Lister 427 (a gift from Professor Keith Matthews) which was cultured in HMI-9 medium containing 10% fetal bovine serum (FBS). A second cell line, T. b. brucei GVR35-Luc2 which constitutively expresses firefly luciferase (5) was grown in Modified HMI-9 plus 20% fetal calf serum (FCS) supplemented with 20% Serum Plus (Sigma) and 0.15 μg/ml puromycin as described previously (5). Both strains of trypanosomes were cultured in T-25 vented cap flasks at 37 °C and 5% CO2.
Growth inhibition tests of bloodstream-form T. b. brucei Lister 427 were carried out using the LILiT (long incubation low inoculation test) method (6). The parasites were cultured in complete HMI-9 medium containing 10% FBS in 96-well plates (Greiner Inc.) with approximately 2500 trypanosomes per well. A 3-fold dilution series (in the range from 45 µM – 0.020 µM) of the inhibitor compounds were prepared in the plate; the maximal concentration of DMSO was 0.45%. After 72 hours of incubation at 37 °C and 5% CO2, 50 µl Alamar Blue (0.2% diluted with Dulbecco’s-phosphate buffered saline (D-PBS, Sigma) was added to each well and plates were incubated at 37 °C and 5% CO2 for 4 hours. Fluorescence was read on the BMG multiplate reader using an excitation wavelength of 530 nm and an emission wavelength of 590 nm.

CYP2C9 = target: T1, CYP2C9 (Homo sapiens, UniProt P11712); experiment: Inhibition of CYP450 2C9; type: in vitro ADME; conditions: CYP450 isoform inhibition kit (BD Biosciences), probe MFC
T1 construct: purchased BD Biosciences
Description: A HepG2 cytotoxicity assay was used to determine a cellular selectivity index. HepG2 cells were seeded into 96-well plates in EMEM medium. Compounds were assessed for their effect upon cellular viability (Supplementary Methods 5.1). Inhibition of CYP450 was determined using kits from BD Biosciences (Supplementary Methods 5.2). Metabolic stability was determined using mouse […] tested at a single concentration of 5 µM. Plasma protein binding was determined using mouse and human plasma at a single concentration of 10 µM (Supplementary Methods 5.4). All PK studies in mice were carried out by Pharmidex (Supplementary Methods 6.1).
The compounds were investigated for their inhibitory effect on cytochrome P450 (CYP450) activity using five CYP450 isoforms (with fluorescent substrates in brackets): 3A4 (two substrates, BFC and DBF), 2D6 (AMMC), 2C9 (MFC), 2C19 (CEC) and 1A2 (CEC). Kits from BD Biosciences were used along with the method described by the manufacturer. […] Fluorescence was measured using a SpectraMax M5 plate reader.

T. b. brucei GVR35-luc = experiment: Wash-out studies, GVR35; type: cell-based; conditions: concentrations greater than 2 to 4 µM, exposure longer than 4-6 hours, 3 days in drug free medium
Description: In vitro ‘wash-out’ studies were performed to determine the reversibility of the action of the CTCB compounds on trypanosomes, after a certain exposure time, and thus to assess whether the compounds have a trypanocidal or trypanostatic effect. These experiments were carried out with both the T. b. brucei Lister 427 and T. b. brucei GVR35-luc strains. Trypanosomes at a density of 500,000 cells/ml in culture medium were incubated with CTCB compounds at varying concentrations in 12-well plates in volumes of 1 ml for different periods of time at 37°C. Subsequently, the cultures were centrifuged for 5 min at 2600 x g, the cells washed by re-suspending the pellets in 1 ml medium without inhibitors, centrifuged again and re-suspended in 1 ml fresh medium. The cell suspensions were then incubated under regular culture conditions for 3 days and parasite growth monitored daily by light microscopy.
The results for both strains are similar with no grow-back at concentrations of CTCB compounds greater than 2 to 4 µM with drug exposure longer than 4-6 hours.

T. b. brucei Lister 427 = experiment: Wash-out studies, Lister 427; type: cell-based; conditions: concentrations greater than 2 to 4 µM, exposure longer than 4-6 hours, 3 days in drug free medium
Description: In order to estimate a killing-dose for in vivo trials, a series of washout experiments were carried out: parasites were incubated with a given concentration of compound before washing out the drug and determining whether the parasites were still viable and able to proliferate. […] The existence of a small population of parasites more resistant to the effects of the CTCB compounds might be explained by subpopulations of parasites being present at different stages of the cell cycle. The parasite cultures used in the killing experiments are not synchronised, and it is likely that ATP requirement varies depending on cell cycle phase and a subpopulation with lower ATP requirement may be less susceptible to the CTCB compounds, however, this phenomenon needs further investigation.
In vitro ‘wash-out’ studies were performed to determine the reversibility of the action of the CTCB compounds on trypanosomes, after a certain exposure time, and thus to assess whether the compounds have a trypanocidal or trypanostatic effect. These experiments were carried out with both the T. b. brucei Lister 427 and T. b. brucei GVR35-luc strains. […] The cell suspensions were then incubated under regular culture conditions for 3 days and parasite growth monitored daily by light microscopy. […]

[2] = Mouse hepatocytes intrinsic clearance; type: in vitro ADME
From the text: Methods are described in Supplementary Methods 5 and 6. Enzyme assay results are means ± SD in multiple assays. ADME results are averages of n = 2 or 3 measurements in individual assays.

T. b. gambiense = experiment: EC50 against in vitro cultured T. b. gambiense (STMI); type: cell-based; conditions: Trypanosoma brucei
[3] = 72 h, Alamar Blue, read-out: EC50 (µM) in vitro parasite killing of bloodstream form T. brucei Lister 427 (Tbb EC50)
[4] = Glycerol 0.75 mM, read-out: EC50
[5] = Glycerol 5.0 mM, read-out: EC50

T1 sequence (P11712 whole entry, canonical isoform): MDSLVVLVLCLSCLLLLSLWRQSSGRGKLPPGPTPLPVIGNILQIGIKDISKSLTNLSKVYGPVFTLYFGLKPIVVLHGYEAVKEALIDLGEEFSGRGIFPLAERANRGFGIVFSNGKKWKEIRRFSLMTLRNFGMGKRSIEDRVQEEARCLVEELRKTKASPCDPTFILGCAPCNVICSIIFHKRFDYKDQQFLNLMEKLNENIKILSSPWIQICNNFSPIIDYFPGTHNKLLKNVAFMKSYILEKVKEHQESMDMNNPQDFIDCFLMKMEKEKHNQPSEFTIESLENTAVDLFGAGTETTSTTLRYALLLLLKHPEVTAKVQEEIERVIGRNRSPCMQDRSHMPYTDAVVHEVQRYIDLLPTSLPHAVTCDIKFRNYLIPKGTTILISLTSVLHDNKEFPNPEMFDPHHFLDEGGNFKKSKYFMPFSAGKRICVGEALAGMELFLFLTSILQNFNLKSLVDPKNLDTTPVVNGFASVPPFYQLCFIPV

Structure (SMILES)	EC50 ([1]; 72 h, read-out: EC50 (µM) in vitro parasite killing of bloodstream form T. brucei Lister 427 (Tbb EC50), 72 h, Alamar Blue) [µM]	inhibition at 10 µM (CYP2C9) [%]	EC50 [1, 3] [µM]	EC50 [1, 4] [µM]	EC50 [1, 5] [µM]	EC50 ([1]; Glycerol […], read-out: EC50) [µM]	wash-out: grow-back after removal of drug (T. b. brucei GVR35-luc)	wash-out: grow-back after removal of drug (T. b. brucei Lister 427)	Mouse hepatocytes Clint [2] [µL min^−1 per 10^6 cells]	EC50 ([1]; Glycerol 0 mM, read-out: EC50) [µM]	EC50 (T. b. gambiense) [nM]
CNCCn1ccc2c(ccn2Cc2ccc(Cl)c(Cl)c2)c1=O [CTCB-435]	0.25 ± 0.05										
CN(C)CCn1ccc2c(ccn2Cc2ccc(F)c(Br)c2)c1=O [CTCB-508, 1-[(3-Bromo-4-fluorophenyl)methyl]-5-[2-(dimethylamino)ethyl] pyrrolo[3,2-c]pyridin-4-one]		6.1	0.3 ± 0.02	0.31	0.44	0.34					
CN(C)CCn1ccc2c(ccn2Cc2ccc(Cl)c(Br)c2)c1=O [CTCB-470, 1-[(3-Bromo-4-chlorophenyl)methyl]-5-[2-(dimethylamino)ethyl] pyrrolo[3,2-c]pyridin-4-one]		28.5	0.31 ± 0.03	0.26		0.26	no grow-back	no grow-back	3.6	0.23	140
CN(C)CCn1ccc2c(ccn2Cc2ccc(Cl)c(Cl)c2)c1=O [CTCB-405, 1-[(3,4-Dichlorophenyl)methyl]-5-[2-(dimethylamino)ethyl] pyrrolo[3,2-c]pyridin-4-one]		11	0.37 ± 0.04	0.33	0.45	0.32	no grow-back	no grow-back	3.7	0.27	190

— publication PMC7887271, “Fast acting allosteric phosphofructokinase inhibitors block trypanosome glycolysis and cure acute African trypanosomiasis in mice” (Nature Communications, 2021)
